# Source: patent publication US4775758A, “Phospholipids” (Takeda Chemical Industries, Ltd., priority 1983, dated 1988)
# Columns and labels:
# sarcoma 180 cells [1] = experiment: Antitumor activity (simultaneous administration), intraperitoneal sarcoma 180, life span; type: in vivo, ICR mice; conditions: for rate of life prolongation against the control group: 1 mg/mouse i.p. after i.p. transplantation of 1×10^5 sarcoma 180 cells, ICR mice
# Method: Antitumor activity (simultaneous administration) of 1,3-dioctyloxypropane-2-yl 2-trimethylammonioethyl phosphate (Example 1)
# Sarcoma 180 cells (1×10^5 cells per mouse) was transplanted intraperitoneally to ICR mice (a group consisting of 5 mice). Subsequently, the compound of Example 1 (1 mg/mouse) was dissolved in physiological saline, and administered intraperitoneally to each of the mice. In the group given the drug compound, two mice survived 60 days, and the rate of life prolongation against the control group not given the drug compound was 458.
# sarcoma 180 cells [2] = experiment: Antitumor activity, subcutaneous sarcoma 180, intravenous administration, tumor weight; type: in vivo; conditions: 0.06 mg/mouse i.v., 9 times, 7th to 20th day; tumor weight on 21st day; sarcoma 180 s.c., ICR mice
# Method: (§1) Antitumor activity of 1,3-dioctyloxypropane-2-yl 2-trimethylammonioethyl phosphate (Example 1)
# Sarcoma 180 cells (1×10^6 cells) were transplanted subcutaneously to each of ICR mice (a group consisting of 5 mice). The compound of Example 1 was injected intravenously to the mice at the single dose rate of 0.06 mg/mouse 9 times over the period of from the 7th day after the transplantation to the 20th day. On the 21th day, the mice were anatomized, and the weight of tumors was measured.
# Diaporthe citri = experiment: Antifungal action, MIC by serial dilution technique; type: cell-based; conditions: 1% glucose bouillon agar
# Method: (§2) Antifungal action of 1,3-dioctyloxypropane-2-yl 2-trimethylammonioethyl phosphate (Example 1)
# (§3) Using typical fungi, the minimal inhibition concentrations (MIC) were determined with the compound of Example 1 by the serial dilution technique on a 1% glucose bouillon agar culture medium.
# Elsinoe fawcetti = experiment: as above; type: cell-based; conditions: 1% glucose bouillon agar
# Method: as §2, §3
# Botrytis cinerea = experiment: as above; type: cell-based; conditions: 1% glucose bouillon agar
# Method: as §2, §3
# Cercospora beticola = experiment: as above; type: cell-based; conditions: 1% glucose bouillon agar
# Method: as §2, §3
# Cladosporium herbarum = experiment: as above; type: cell-based; conditions: 1% glucose bouillon agar
# Method: as §2, §3
# Helminthosporium oryzae = experiment: as above; type: cell-based; conditions: Bipolaris oryzae
# Mucor spinescens = experiment: as above; type: cell-based; conditions: 1% glucose bouillon agar
# Saccharomyces cerevisiae = experiment: as above; type: cell-based; conditions: 1% glucose bouillon agar
# Piricularia oryzae = experiment: microbe, parasite or virus in culture; type: cell-based
# sarcoma 180 cells [3] = experiment: Antitumor activity, subcutaneous sarcoma 180, intraperitoneal administration, tumor weight; type: in vivo; conditions: 0.2 mg/mouse i.p., 13 times, 2nd to 20th day; tumor weight on 21st day; sarcoma 180 s.c., ICR mice
# Method: as §1
# Sarcoma 180 cells (1×10^6 cells) were transplanted subcutaneously to each of ICR mice (a group consisting of 5 mice). The compound of Example 1 was administered intraperitoneally to the mice at the single dose rate of 0.2 mg/mouse 13 times over the period of from the 2nd day to the 20th day. On the 21th day, the mice were anatomized, and the weight of tumors was measured.
# Penicilium citrinum = experiment: Antifungal action, MIC by serial dilution technique; type: cell-based; conditions: 1% glucose bouillon agar
# sarcoma 180 cells [4] = experiment: Antitumor activity (pre-administration), intraperitoneal sarcoma 180, life span; type: in vivo; conditions: 1 mg/mouse i.p., 4 days before i.p. transplantation of 1×10^5 sarcoma 180 cells; ICR mice
# Method: Antitumor activity (pre-administration) of 1,3-dioctyloxypropane-2-yl 2-trimethylammonioethyl phosphate (Example 1)
# A 1 mg/mouse of the compound of Example 1 was admixed with physiological saline, and administered intraperitoneally to ICR mice (a group consisting of 5 mice). Four days later, 1×10^5 sarcoma 180 cells per mouse was transplanted intraperitoneally to each of the mice.
# P 388 leukemia cells = experiment: Antitumor activity, P 388 leukemia cells mixed with compound and transplanted subcutaneously, tumor weight; type: in vivo; conditions: 1×10^6 P 388 cells mixed with 0.1 g of compound, s.c., CDF1 mice; tumor weight on 10th day
# From the text: Antitumor activity of 1,3-dioctyloxypropane-2-yl 2-thiazolioethyl phosphate (Example 3)
# P 388 leukemia cells (1×10^6 cells) were mixed with 0.1 g of the compound of Example 3, and transplanted subcutaneously to each of CDF1 mice (a group consisting of 5 mice).
# sarcoma 180 cells [5] = experiment: Antitumor activity, intraperitoneal sarcoma 180, three administrations, life span; type: in vivo, ICR mice
# From the text: ICR mice (5 animals per group) were intraperitoneally inoculated with 1×10^5 sarcoma 180 cells per mouse. […] The life span prolonging ratio as compared with the control (no drug treatment) group was 198, and 1 animal survived on day 60.
# Meth A cells = experiment: Antitumor activity, subcutaneous Meth A, administration on the transplanted portion, tumor weight; type: in vivo; conditions: 0.25 mg/mouse on the transplanted portion once a day for 4 days; Meth A s.c., CDF1 mice; ten days later
# Method: Antitumor activity of 1,3-dinonyloxypropane-2-yl 2-trimethylammonioethyl phosphate (Example 9)
# Meth A cells (1×10^6 cells per mouse) were transplanted subcutaneously to CDF1 mice (a group consisting of 5 mice). On the other hand, a solution of 0.25 mg/mouse of the compound of Example 9 in 0.05 ml of physilogical saline was given to each of the mice on the portion transplanted with the cells once a day for 4 consecutive days from the 1st day following the transplantation. Ten days later, the tumor tissues were removed, and the weight of tumors was measured.
# MM46 cells = experiment: Antitumor activity, intraperitoneal MM46, administration before and after inoculation, survival; type: in vivo; conditions: 5 animals per group; 0.25 mg/mouse i.p., 4 days before and 4 days after 1×10^4 MM46 cells i.p.; C3H/He mice; controls all died within 19 days
# Method: Antitumor activity of the compound of Example 9
# The compound of Example 9 was intraperitoneally administered to C3H/He mice (5 animals per group) in a dose of 0.25 mg/mouse for 4 consecutive days.
# On the 5th day, 1×10^4 MM46 cells were intraperitoneally inoculated into each mouse, and the compound of Example 9 was again administered intraperitoneally to the mice in a dose of 0.25 mg/mouse for 4 days starting from day 1 after inoculation.
# The mice in the control group all died within 19 days after tumor implantation, whereas, in the drug-treated group, 3 animals survived on day 60.
# sarcoma 180 cells [6] = experiment: Antitumor activity, intraperitoneal sarcoma 180, 9 consecutive days, life span; type: in vivo; conditions: 25 mg/kg i.p., 4×10^5 sarcoma 180 cells i.p., ICR mice
# Method: Antitumor activity of 1,3-diheptyloxypropane-2-yl 2-trimethylammonioethyl phosphate (Example 10)
# Sarcoma 180 cells (4×10^5 cells per mouse) were transplanted intraperitoneally to ICR mice (a group consisting of 5 mice). The compound of Example 10 was administered intraperitoneally to the mice at the single dose rate of 25 mg/kg for 9 consecutive days from the day following transplantation.
# platelet = conditions: Biochemical and Biophysical Research Communications, 99, 183 (1981); cited from earlier work
# [7] = rat, in vivo, iv
# Method: Male 7-week aged Sprague-Dawley rats (weighing 200 to 290 g) were anesthetized by intraperitoneal administration of 60 mg/kg of pentobarbital sodium, and the left carotids (for the measurement of blood pressure) and left femoral veins (for the intravenous administration) were cannulated.
compound,measurement,setting,value
"CCCCCCCCOCC(COP(=O)([O-])OCC[N+](C)(C)C)OCCCCCCCC (stereo not drawn) [2,3-dioctyloxypropyl 2-trimethylammonioethyl phosphate, reference compound]",rate of life prolongation against the control group,sarcoma 180 cells [1],195
"CCCCCCCCOCC(COCCCCCCCC)OP(=O)([O-])OCC[N+](C)(C)C [Example 1, 1,3-Dioctyloxypropane-2-yl 2-trimethylammonioethyl phosphate]",growth inhibition rate of tumor,sarcoma 180 cells [2],52%
same,rate of life prolongation against the control group,sarcoma 180 cells [1],458
same,mice survived 60 days,"sarcoma 180 cells [1]; group of 5 mice, 1 mg/mouse i.p., sarcoma 180 i.p.",two
same,MIC,Diaporthe citri,6.25 µg/mL
same,MIC,Elsinoe fawcetti,3.12 µg/mL
same,MIC,Botrytis cinerea,3.12 µg/mL
same,MIC,Cercospora beticola,6.25 µg/mL
same,MIC,Cladosporium herbarum,6.25 µg/mL
same,MIC,Helminthosporium oryzae,3.12 µg/mL
same,MIC,Mucor spinescens,12.5 µg/mL
same,MIC,Saccharomyces cerevisiae,25 µg/mL
same,MIC,Piricularia oryzae,6.25 µg/mL
same,growth inhibition rate of tumor,sarcoma 180 cells [3],54%
same,MIC,Penicilium citrinum,12.5 µg/mL
same,rate of life span prolongation against the control group (T/C),sarcoma 180 cells [4],225
"CCCCCCCCOCC(COCCCCCCCC)OP(=O)([O-])OCC[n+]1ccsc1 [Example 3, 1,3-Dioctyloxypropane-2-yl 2-thiazolioethyl phosphate]",growth inhibition rate of tumor,P 388 leukemia cells,83%
"CCCCCCCCCOCC(COCCCCCCCCC)OP(=O)([O-])OCC[N+](C)(C)C [Example 9, 1,3-Dinonyloxypropane-2-yl 2-trimethylammonioethyl phosphate]",life span prolonging ratio as compared with the control,"sarcoma 180 cells [5]; 0.33 mg/mouse three times (hour 1, day 1, day 2), 1×10^5 sarcoma 180 cells i.p., ICR mice",198
same,animal survived on day 60,"sarcoma 180 cells [5]; 5 animals per group, 0.33 mg/mouse three times, sarcoma 180 i.p.",1 animal
same,growth inhibition rate of tumor,Meth A cells,76%
same,animals survived on day 60,MM46 cells,3 animals
"CCCCCCCOCC(COCCCCCCC)OP(=O)([O-])OCC[N+](C)(C)C [Example 10, 1,3-Diheptyloxypropane-2-yl 2-trimethylammonioethyl phosphate]",rate of life span prolongation against the control group (T/C),sarcoma 180 cells [6],295
CCCCCCCCCCCCCCCCCCOCC(COP(=O)([O-])OCC[N+](C)(C)C)OC (stereo not drawn) [compound (XI)],platelet aggregating action,platelet,has platelet aggregating action
same,blood pressure lowering action (in words),[7],possesses blood-pressure lowering action
